Consider eleven compounds from PMC11263391, “Molecular insights into degron recognition by CRL5^ASB7 ubiquitin ligase” (Nature Communications, 2024).

As a reminder, the Kd is the concentration at which binding is half-saturated.

The assay has as its target T1, ASB7-Elongin B/C (Homo sapiens, UniProt Q9H672).
T1 construct: The human ASB7 (residues 11–318) was amplified via PCR; His8-SUMO (pET28-MKH8SUMO) (N, cleaved yes); made in house; host or cells: Escherichia coli BL21 (DE3)
The assay can be described thus: ITC of degron peptides with wild-type ASB7-Elongin B/C. The class given is binding. To be noted: for ASB7 binding ability of substituted peptide, in words: wild-type ASB7, compared with native LZTS1-degron; for -T∆S / ∆G / ∆H: wild-type ASB7-Elongin B/C; for ∆H: mean ± SD of three repeats. The procedure: The human ASB7 (residues 11-318) was amplified via PCR from a human cDNA library and seamlessly cloned into the pET28-MKH8SUMO vector (Addgene plasmid #79526). […] ITC assays were performed using a MicroCal PEAQ-ITC instrument (Malvern Panalytical) at 16 °C. […] All protein and peptide stocks were prepared in an ITC buffer (20 mM Tris-HCl pH 7.5, and 150 mM NaCl) and subsequently diluted to the desired concentrations (39-156 μM for ASB7 protein and 0.8-4 mM for the peptides, respectively). In each experiment, 1.5 μL of peptide was titrated into the ASB7 complex solution with 15 injections. The injections were spaced at 90 seconds with a reference power of 15 μcal/s. The ITC data were processed using MicroCal PEAQ-ITC Analysis software.

[1] abbreviates: ITC, MicroCal PEAQ-ITC, 16 °C, 20 mM Tris-HCl pH 7.5, 150 mM NaCl, peptide (0.8–4 mM) titrated into wild-type ASB7-Elongin B/C (39–156 μM), 15 injections, mean ± SD of three independent repeats, read-out: KD.
Setting [2] is: ITC, 16 °C, 20 mM Tris-HCl pH 7.5, 150 mM NaCl.

Where two headings read alike, the source gives them in different places. Residues, ends and D or L forms follow the SMILES beside them. A value given as a limit tells only on which side of the number the result lay.

T1 sequence (Q9H672 11-318): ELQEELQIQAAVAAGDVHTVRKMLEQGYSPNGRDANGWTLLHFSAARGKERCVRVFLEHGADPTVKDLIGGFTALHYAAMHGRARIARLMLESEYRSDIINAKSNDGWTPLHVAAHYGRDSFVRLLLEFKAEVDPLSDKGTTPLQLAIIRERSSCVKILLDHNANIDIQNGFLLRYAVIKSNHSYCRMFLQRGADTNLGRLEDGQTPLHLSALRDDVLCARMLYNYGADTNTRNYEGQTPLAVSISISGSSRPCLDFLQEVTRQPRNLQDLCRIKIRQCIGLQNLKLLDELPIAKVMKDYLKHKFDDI
T1 sequence (Q15370 1-104 partner limits assumed): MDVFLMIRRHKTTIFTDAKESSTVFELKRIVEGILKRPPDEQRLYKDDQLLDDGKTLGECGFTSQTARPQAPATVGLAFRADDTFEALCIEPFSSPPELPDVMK
T1 sequence (Q15369 17-112 partner limits assumed): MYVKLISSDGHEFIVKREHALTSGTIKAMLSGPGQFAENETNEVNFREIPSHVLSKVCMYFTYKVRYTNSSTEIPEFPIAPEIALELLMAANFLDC

With `CSCC[C@H](NC(=O)[C@H](CC(C)C)NC(=O)[C@H](CO)NC(=O)[C@H](CCC(=O)O)NC(=O)[C@H](CC(C)C)NC(=O)[C@@H](N)CCC(=O)O)C(=O)N[C@@H](CCCCN)C(=O)N[C@@H](CCC(=O)O)C(=O)N[C@@H](CCC(N)=O)C(=O)N[C@@H](CC(=O)O)C(=O)N[C@@H](CC(C)C)C(=O)N[C@@H](CC(C)C)C(=O)N[C@@H](CCC(=O)O)C(=O)N[C@H](C(=O)N[C@@H](CCCCN)C(=O)N[C@@H](CC(C)C)C(=O)N[C@@H](CCCNC(=N)N)C(=O)N[C@@H](CO)C(=O)N[C@@H](Cc1ccc(O)cc1)C(=O)N[C@@H](CCC(=O)O)C(=O)N[C@@H](CCCNC(=N)N)C(=O)O)[C@@H](C)O` (H-ELESLMKEQDLLETKLRSYER-OH), under setting [1], the Kd was determined as 0.7 ± 0.31 µM.

As to `CSCC[C@H](NC(=O)[C@H](CC(C)C)NC(=O)[C@H](CO)NC(=O)[C@H](CCC(=O)O)NC(=O)[C@H](CC(C)C)NC(=O)[C@H](CCC(=O)O)NC(=O)[C@H](CCC(N)=O)NC(=O)[C@@H](N)CCCNC(=N)N)C(=O)N[C@@H](CCCCN)C(=O)N[C@@H](CCCNC(=N)N)C(=O)N[C@@H](CCC(N)=O)C(=O)N[C@@H](CC(=O)O)C(=O)N[C@@H](CC(C)C)C(=O)N[C@@H](CC(C)C)C(=O)N[C@@H](CCC(=O)O)C(=O)N[C@H](C(=O)N[C@@H](CCCCN)C(=O)N[C@@H](CC(C)C)C(=O)N[C@@H](CCCNC(=N)N)C(=O)N[C@@H](CO)C(=O)N[C@@H](Cc1ccc(O)cc1)C(=O)N[C@@H](CCC(=O)O)C(=O)N[C@@H](CCCNC(=N)N)C(=O)O)[C@@H](C)O` [E8R] (H-RQELESLMKRQDLLETKLRSYER-OH; N-terminus and C-terminus assumed), under setting [1], the dissociation constant Kd was greater than 30 µM. Also, the “ASB7 binding ability of substituted peptide, in words” value (shortened to “ASB7 binding ability”) (ITC) is “almost complete loss”.

Consider “ELEKAKQECQDLKGKLEKCCRH [CEP152-degron, synthetic degron peptide derived from CEP152]”, for which, under setting [2], the “-T∆S” value is reported as -4.79 kcal/mol, the “∆G” value is listed as -6.59 kcal/mol and the “∆H” value is -1.8 ± 0.09 kcal/mol. The Kd under setting [1] is 3.8 µM.

`CSCC[C@H](NC(=O)[C@H](CCCNC(=N)N)NC(=O)[C@H](CO)NC(=O)[C@H](CCC(=O)O)NC(=O)[C@H](CC(C)C)NC(=O)[C@H](CCC(=O)O)NC(=O)[C@H](CCC(N)=O)NC(=O)[C@@H](N)CCCNC(=N)N)C(=O)N[C@@H](CCCCN)C(=O)N[C@@H](CCC(=O)O)C(=O)N[C@@H](CCC(N)=O)C(=O)N[C@@H](CC(=O)O)C(=O)N[C@@H](CC(C)C)C(=O)N[C@@H](CC(C)C)C(=O)N[C@@H](CCC(=O)O)C(=O)N[C@H](C(=O)N[C@@H](CCCCN)C(=O)N[C@@H](CC(C)C)C(=O)N[C@@H](CCCNC(=N)N)C(=O)N[C@@H](CO)C(=O)N[C@@H](Cc1ccc(O)cc1)C(=O)N[C@@H](CCC(=O)O)C(=O)N[C@@H](CCCNC(=N)N)C(=O)O)[C@@H](C)O` [L5R] (H-RQELESRMKEQDLLETKLRSYER-OH; N-terminus and C-terminus assumed): under setting [1], the Kd is greater than 30 µM. Further, the “ASB7 binding ability” value (ITC) is “almost complete loss”.

As to `CSCC[C@H](NC(=O)[C@H](CC(C)C)NC(=O)[C@H](CO)NC(=O)[C@H](CCC(=O)O)NC(=O)[C@H](CC(C)C)NC(=O)[C@@H](N)CCC(=O)O)C(=O)N[C@@H](CCCCN)C(=O)N[C@@H](CCC(=O)O)C(=O)N[C@@H](CCC(N)=O)C(=O)N[C@@H](CC(=O)O)C(=O)N[C@@H](CC(C)C)C(=O)N[C@@H](CC(C)C)C(=O)N[C@@H](CCC(=O)O)C(=O)O` (H-ELESLMKEQDLLE-OH; N-terminus and C-terminus assumed), the dissociation constant (Kd) under setting [1] is greater than 30 µM.

Consider `CSCC[C@H](NC(=O)[C@H](CC(C)C)NC(=O)[C@H](CO)NC(=O)[C@H](CCC(=O)O)NC(=O)[C@H](CC(C)C)NC(=O)[C@@H](N)CCC(=O)O)C(=O)N[C@@H](CCCCN)C(=O)N[C@@H](CCC(=O)O)C(=O)N[C@@H](CCC(N)=O)C(=O)O` (H-ELESLMKEQ-OH; N-terminus and C-terminus assumed), for which the Kd under setting [1] was greater than 30 µM.

Turning to `CSCC[C@H](NC(=O)[C@H](CC(C)C)NC(=O)[C@H](CO)NC(=O)[C@H](CCC(=O)O)NC(=O)[C@H](CC(C)C)NC(=O)[C@H](CCC(=O)O)NC(=O)[C@H](CCC(N)=O)NC(=O)[C@@H](N)CCCNC(=N)N)C(=O)N[C@@H](CCCCN)C(=O)N[C@@H](CCC(=O)O)C(=O)N[C@@H](CCC(N)=O)C(=O)N[C@@H](CC(=O)O)C(=O)N[C@@H](CC(C)C)C(=O)N[C@@H](CCCNC(=N)N)C(=O)N[C@@H](CCC(=O)O)C(=O)N[C@H](C(=O)N[C@@H](CCCCN)C(=O)N[C@@H](CC(C)C)C(=O)N[C@@H](CCCNC(=N)N)C(=O)N[C@@H](CO)C(=O)N[C@@H](Cc1ccc(O)cc1)C(=O)N[C@@H](CCC(=O)O)C(=O)N[C@@H](CCCNC(=N)N)C(=O)O)[C@@H](C)O` [L12R] (H-RQELESLMKEQDLRETKLRSYER-OH; N-terminus and C-terminus assumed), the dissociation constant (Kd) under setting [1] is greater than 30 µM. Moreover, the “ASB7 binding ability” value (ITC) is listed as “almost complete loss”.

“EIGELKAVMEGIKMEHQLELGN [CLIP2-degron, synthetic degron peptide derived from CLIP2]”: under setting [2], the “-T∆S” value came to 2.57 kcal/mol, the “∆G” value was -8.23 kcal/mol and the “∆H” value was -10.8 ± 0.25 kcal/mol.

Turning to `CSCC[C@H](NC(=O)[C@H](CC(C)C)NC(=O)[C@H](CO)NC(=O)[C@H](CCC(=O)O)NC(=O)[C@H](CC(C)C)NC(=O)[C@H](CCC(=O)O)NC(=O)[C@H](CCC(N)=O)NC(=O)[C@@H](N)CCCNC(=N)N)C(=O)N[C@@H](CCCCN)C(=O)N[C@@H](CCC(=O)O)C(=O)N[C@@H](CCC(N)=O)C(=O)N[C@@H](CC(=O)O)C(=O)N[C@@H](CC(C)C)C(=O)N[C@@H](CC(C)C)C(=O)N[C@@H](CCC(=O)O)C(=O)N[C@H](C(=O)N[C@@H](CCCCN)C(=O)N[C@@H](CC(C)C)C(=O)N[C@@H](CCCNC(=N)N)C(=O)N[C@@H](CO)C(=O)N[C@@H](CCCNC(=N)N)C(=O)N[C@@H](CCC(=O)O)C(=O)N[C@@H](CCCNC(=N)N)C(=O)O)[C@@H](C)O` [Y19R] (H-RQELESLMKEQDLLETKLRSRER-OH), the dissociation constant (Kd) under setting [1] was 0.7 ± 0.05 µM.

Regarding `CSCC[C@H](NC(=O)[C@H](CC(C)C)NC(=O)[C@H](CO)NC(=O)[C@H](CCC(=O)O)NC(=O)[C@H](CC(C)C)NC(=O)[C@@H](N)CCC(=O)O)C(=O)O` [ELESLM] (H-ELESLM-OH), the Kd is greater than 30 µM.

In the case of `CSCC[C@H](NC(=O)[C@H](CC(C)C)NC(=O)[C@H](CO)NC(=O)[C@H](CCC(=O)O)NC(=O)[C@H](CC(C)C)NC(=O)[C@H](CCC(=O)O)NC(=O)[C@H](CCC(N)=O)NC(=O)[C@@H](N)CCCNC(=N)N)C(=O)N[C@@H](CCCCN)C(=O)N[C@@H](CCC(=O)O)C(=O)N[C@@H](CCC(N)=O)C(=O)N[C@@H](CC(=O)O)C(=O)N[C@@H](CC(C)C)C(=O)N[C@@H](CC(C)C)C(=O)N[C@@H](CCC(=O)O)C(=O)N[C@H](C(=O)N[C@@H](CCCCN)C(=O)N[C@@H](CCCNC(=N)N)C(=O)N[C@@H](CCCNC(=N)N)C(=O)N[C@@H](CO)C(=O)N[C@@H](Cc1ccc(O)cc1)C(=O)N[C@@H](CCC(=O)O)C(=O)N[C@@H](CCCNC(=N)N)C(=O)O)[C@@H](C)O` [L16R] (H-RQELESLMKEQDLLETKRRSYER-OH; N-terminus and C-terminus assumed), the dissociation constant (Kd) under setting [1] was greater than 30 µM. The “ASB7 binding ability” value (ITC) is recorded as “almost complete loss”.
